Entries after “also recorded” stand apart in the source; their conditions may differ.
Experiments:
Format in all cases: cell-based, human
HepG2 cells [1] = experiment: Stable isotope tracing for lipogenesis in HepG2 cells
Method: To wash out insulin, cells were washed with EMEM (ATCC 30-2003) seven times, including: three quick washes, three 5-minute washes and a long 20 minute-wash in EMEM at 37° C. Cells were then cultured in EMEM supplemented with 1 mM Sodium acetate-^13C2(Sigma Aldrich, 282014) and with either 0 nM insulin or 1 nM insulin for 36 hours. Media was replenished after 24 hours. Cells were then processed for metabolite isolation (see below).
Metabolite isolation from HepG2 cells: cells were washed in ice-cold PBS (Life Technologies, AM9625), 500 μl of cold 80% MeOH (shared by the Metabolite Profiling Core Facility) was added per well of a 6-well plate and the plate was placed at −80° C. for at least 15 minutes. Following the −80 incubation, the plate was scraped on dry ice and the solution was transferred to a 1.5 ml tube and then vortexed for 5 minutes. To remove cellular debris, the samples were centrifuged at maximum speed for 10 minutes at 4° C. and the supernatant was transferred to a new 1.5 mL tube on dry ice. To remove solvents, the samples were lyophilized using Refrigerated CentriVap Benchtop Vacuum Concentrator connected to a CentriVap-105 Cold Trap (Labconco). Metabolite pellets were re-suspended in LC-MS grade water (ThermoFisher) and vortexed for 10 minutes at 4° C. Samples were centrifuged at 16,000 g for 10 minutes at 4° C. and supernatant was moved into LC-MS vials. […]

HepG2 cells [2] = experiment: Glucose production in HepG2 cells
Method: Insulin sensitive and resistant cells were cultured in EMEM for 30 minutes and then cells were treated with 0, 0.1, 1 and 10 nM insulin in glucose production media, containing DMEM (Thermo Fisher Scientific, A1443001), 15 mM HEPES (Gibco, 15630-080), 1 mM pyruvate (Sigma Aldrich, P5280), 20 mM lactate (Sigma Aldrich, L7022-5G) for 4-5 hours. Media was removed and glucose production was measured using Amplex™ Red Glucose/Glucose oxidase assay kit (Thermo Fisher Scientific, A22189) according to the manufacturer's specifications.
To wash out insulin, cells were washed with EMEM (ATCC 30-2003) seven times, including: three quick washes, three 5-minute washes and a long 20 minute-wash in EMEM at 37° C. Cells were washed with glucose-free RPMI (Gibco, 11879-020) then cultured in glucose-free RPMI for 3 hours. […] Cells were then processed for metabolite isolation (see below).
Metabolite isolation from HepG2 cells: cells were washed in ice-cold PBS (Life Technologies, AM9625), 500 μl of cold 80% MeOH (shared by the Metabolite Profiling Core Facility) was added per well of a 6-well plate and the plate was placed at −80° C. for at least 15 minutes. Following the −80 incubation, the plate was scraped on dry ice and the solution was transferred to a 1.5 ml tube and then vortexed for 5 minutes. […]

insulin receptor (IR) = experiment: Immunoblot for IR levels in HepG2 cells; conditions: insulin resistant HepG2 cells treated with (RM) or without (R) metformin
Method: Cells were washed with ice-cold PBS and lysed in Cell Lytic M (Sigma-Aldrich C2978) supplemented with protease and phosphatase inhibitors (Sigma Aldrich, 11873580001 and 4906837001) directly on the wells. Lysates were placed into a 1.5 ml tube and mixed at 4° C. for 20 min and then centrifuged at 13,000 rpm for 15 min. Protein concentration was determined using a BCA Protein Assay Kit (Life Technologies, 23250) according to the manufacturer's instructions. Equal amounts of protein (5-50 μg per sample) were separated on 10% or 12% Bis-Tris gels in 5% XT MOPS running buffer (Bio-Rad Laboratories, 1610788) at 100V until dye front reached the end of the gel. Protein was then transferred to a 0.45 μM PVDF membrane (Millipore, IPVH00010) in ice cold transfer buffer (25 mM Tris, 192 mM glycine, 20% methanol) at 300 mA for 1 hour or 250 mA for 2 hours at 4° C. […] Immunoblot quantification was performed using the “analyze gel” tool on Fiji/ImageJ v2.1.0/153c. […]
Cells were washed with ice-cold PBS (Life Technologies, AM9625) and lysed in Cell Lytic M (Sigma Aldrich C2978) supplemented with protease and phosphatase inhibitors (Sigma Aldrich, 11873580001 and 4906837001) directly on the wells. […] Super natant was collected and protein concentration was determined using a BCA Protein Assay Kit (Life Technologies, 23250) according to the manufacturer's instructions. […]

[3] = cells exposed to pathologic levels (3 nM) of insulin for two days

In the case of “insulin: insulin (Sigma Aldrich, I9278-5ML) used for acute stimulation and chronic physiological or pathological exposure”, the “lipogenesis after insulin stimulation” value (HepG2 cells [1]; [3]) is reported as “unchanged”, the lipogenesis (HepG2 cells [1]; insulin-sensitive HepG2 cells, 1 nM insulin 36 hours) is reported as “increased lipogenesis” and the “glucose production after insulin stimulation” value (HepG2 cells [2]; [3]) is reported as “unchanged”. For the same compound, the glucose production (HepG2 cells [2]; insulin-sensitive HepG2 cells, acute insulin stimulation (FIGS. 22G-22H)) was “decreased glucose production”.
In the case of `CN(C)C(=N)N=C(N)N` [metformin, reference compound], the “IR levels (immunoblot for IRb)” value (insulin receptor (IR)) is reported as “not due to changes in IR levels; also recorded: does not alter IR protein level in insulin resistant cells”.
